The text below walks through data of patent publication US10730870B2, “Compounds and methods for the enhanced degradation of targeted proteins” (Arvinas, Inc., priority 2015, dated 2020).

In the assay the target is VHL (Homo sapiens (Human), UniProt P40337). Kind of assay: VHL fluorescence polarization (FP) competition assay. Type of assay: binding. As to conditions: 1% in DMSO. (In fluorescence polarisation assays a small probe gives low polarisation when free and higher when bound to something large.)

`CC(=O)N[C@H](C(=S)N1C[C@H](O)C[C@H]1C(=O)NCc1ccc(-c2scnc2C)cc1)C(C)C` [Example 130, (2S,4R)-1-((S)-2-acetamido-3-methylbutanethioyl)-4-hydroxy-N-(4-(4-methylthiazol-5-yl)benzyl)pyrrolidine-2-carboxamide]: the IC50 – broadly, the concentration that gives 50% inhibition – was 3.89 µM.

Turning to `Cc1ncsc1-c1ccc(CNC(=O)C2(C)C[C@@H](O)CN2C(=O)[C@H](C(C)C)N2Cc3ccccc3C2=O)cc1` (some centres unmarked) [Example 131], the “VHL FP Assay IC50” value is “Not Active”.

On to `Cc1ncsc1-c1ccc(CNC(=O)C2(C)C[C@@H](O)CN2C(=O)[C@H](C(C)C)N2Cc3ccccc3C2=O)cc1` (some centres unmarked) [Example 132], for which the IC50 turned out to be 1.69 µM.

Compound `Cc1ncoc1-c1ccc(CNC(=O)[C@@H]2C[C@@H](O)CN2C(=O)[C@H](C(C)C)N2Cc3ccccc3C2=O)cc1` [Example 133, (2S,4R)-4-hydroxy-1-((S)-3-methyl-2-(1-oxoisoindolin-2-yl)butanoyl)-N-(4-(4-methyloxazol-5-yl)benzyl)pyrrolidine-2-carboxamide] came in with an IC50 of 1.64 µM.

`CC(C)[C@@H](C(=O)N1C[C@H](O)C[C@H]1C(=O)NCc1ccc(-c2ccno2)cc1)N1Cc2ccccc2C1=O` [Example 136, (2S,4R)-4-hydroxy-N-(4-(isoxazol-5-yl)benzyl)-1-((S)-3-methyl-2-(1-oxoisoindolin-2-yl)butanoyl)pyrrolidine-2-carboxamide] came in with an IC50 of 5.59 µM.

In the case of `Cc1cc(C(C)(C)C(=O)N2C[C@H](O)C[C@H]2C(=O)NCc2ccc(-c3scnc3C)cc2)on1` [Example 140, (2S,4R)-4-hydroxy-1-(2-methyl-2-(3-methylisoxazol-5-yl)propanoyl)-N-(4-(4-methylthiazol-5-yl)benzyl)pyrrolidine-2-carboxamide], the IC50 stood at 157 µM.

Compound `Cc1ncsc1-c1ccc(CNC(=O)[C@@H]2C[C@@](C)(O)CN2C(=O)[C@H](C(C)C)N2Cc3ccccc3C2=O)cc1` [Example 142, (2S,4R)-4-hydroxy-4-methyl-1-((S)-3-methyl-2-(1-oxoisoindolin-2-yl)butanoyl)-N-(4-(4-methylthiazol-5-yl)benzyl)pyrrolidine-2-carboxamide] returned an IC50 of 134 µM.

Regarding `CCC(C(=O)N1C[C@H](O)C[C@H]1C(=O)NCc1ccc(-c2scnc2C)cc1)c1cc(C)no1` (stereo partly drawn) [Example 143, (2S,4R)-4-hydroxy-1-(2-(3-methylisoxazol-5-yl)butanoyl)-N-(4-(4-methylthiazol-5-yl)benzyl)pyrrolidine-2-carboxamide], the IC50 was found to be 0.964 µM.

In the case of `Cc1ncsc1-c1ccc(CNC(=O)[C@@H]2C[C@@](O)(CO)CN2C(=O)[C@H](C(C)C)N2Cc3ccccc3C2=O)cc1` [Example 144, (2S,4S)-4-hydroxy-4-(hydroxymethyl)-1-((S)-3-methyl-2-(1-oxoisoindolin-2-yl)butanoyl)-N-(4-(4-methylthiazol-5-yl)benzyl)pyrrolidine-2-carboxamide], the “VHL FP Assay IC50” value is “Not active”.

Compound `Cc1ncsc1-c1ccc(CNC(=O)[C@@H]2[C@@H](O)[C@@H](O)CN2C(=O)[C@H](C(C)C)N2Cc3ccccc3C2=O)cc1` [Example 147, (2S,3R,4S)-3,4-dihydroxy-1-((S)-3-methyl-2-(1-oxoisoindolin-2-yl)butanoyl)-N-(4-(4-methylthiazol-5-yl)benzyl)pyrrolidine-2-carboxamide] displayed an IC50 of 12.4 µM.

In turn, `CCC[C@H](NC(C)=O)C(=O)N1C[C@H](O)C[C@H]1C(=O)NCc1ccc(-c2scnc2C)cc1` [Example 148, (2S,4R)-1-((S)-2-acetamidopentanoyl)-4-hydroxy-N-(4-(4-methylthiazol-5-yl)benzyl)pyrrolidine-2-carboxamide] gave an IC50 of 6.2 µM.
